Earlier results, collected in article PMC9326486, “The Therapeutic Potential of Targeting NIK in B Cell Malignancies” (Frontiers in Immunology, 2022).
Like-named read-outs stand apart in the source and are kept apart here.

How the values were obtained:
[1] = test system: L363, KMS11 and JMW1 cell lines Z138 and MAVER-1 cell lines U-2 OS cell line; set-up: method as in earlier work; conditions: Multiple myeloma (L363, KMS11, JMW1), mantle cell lymphoma (Z138, MAVER-1), osteosarcoma (U-2 OS) cell lines; ref [71] [72] [73]
[2] = test system: p52 nuclear translocation; conditions: in vitro treatment, MCL and context of inflammation; ref [72], [73]
[3] = set-up: method as in PMID 24980832; conditions: prevented further in vivo studies; ref [71]
[4] = test system: non-canonical NF-κB signaling; set-up: method as in PMID 24980832; conditions: ref [71]
EJM cell line = test system: EJM cell line; set-up: method as in PMID 30108985; conditions: Multiple myeloma, ref [75]
NF-κB gene reporter = test system: NF-κB gene reporter; set-up: method as in PMID 30108985; conditions: ref [75]
[5] = test system: liver-specific NIK overexpression mouse model; set-up: method as in PMID 27871061; conditions: intravenous administration, ref [80]
p100-to-p52 processing = test system: p100-to-p52 processing; set-up: method as in PMID 27871061; conditions: ref [80]
WT mice on ethanol diet = test system: WT mice on ethanol diet; set-up: method as in PMID 32206109; conditions: alcoholic liver disease, ref [82]
mouse stem cells = test system: mouse stem cells; set-up: method as in doi:10.1101/2021.08.26.457753; conditions: in vitro, ref [86]
[6] = set-up: method as in PMID 27871061, PMID 32730745; conditions: ref [80], [81]
[7] = test system: Chronic lymphocytic leukemia Primary cells; set-up: method as in PMID 33495554; conditions: ref [77]
CLL cells = test system: CLL cells; set-up: method as in PMID 33495554; conditions: ref [77]
primary CLL cells = test system: primary CLL cells; set-up: method as in PMID 33495554; conditions: ref [77]
NIK = test system: NIK; set-up: method as in PMID 29940120; conditions: Table 2, inhibitors applied in vivo; WT mice; ref [85]
HEK293 cell line = test system: HEK293 cell line; set-up: method as in PMID 28005357; conditions: ref [74]
HT-29 cell line = test system: HT-29 cell line; set-up: method as in PMID 23374866; conditions: Colorectal adenocarcinoma, ref [70]
SW1990 cell line = test system: SW1990 cell line; set-up: method as in PMID 31116887; conditions: Pancreatic cancer, ref [76]
NZB/W F1 lupus mice = test system: NZB/W F1 lupus mice; set-up: method as in PMID 29330524; conditions: systemic lupus erythematosus mouse model; ref [83]
WT mice = test system: WT mice; set-up: method as in PMID 29330524; conditions: ref [83]
[8] = test system: intrahepatic cholangiocarcinoma xenografts; set-up: method as in PMID 34995376; conditions: ref [84]
RelA activity = test system: RelA activity; set-up: method as in PMID 29330524; conditions: selectivity for non-canonical NF-κB signaling; ref [83]
[9] = higher concentrations (above 0.25µM)

## Nc1ncc(Cl)c(N2CCc3ccc(C#CC4(O)CCCC4)cc32)n1 [Amgen16]
[1]
  IC50: 417 to 2520 nM
[2]
  p52 nuclear translocation: Inhibition of p52 nuclear translocation
[3]
  pharmacokinetic properties: poor
[4]; MM cell lines with mutations activating non-canonical NF-κB signaling independent of NIK
  effect on non-canonical NF-κB signaling: not affected
[4]; NIK-dependent MM cell lines
  effect on non-canonical NF-κB signaling: inhibition of non-canonical NF-κB signaling

## CC(=O)n1nc(C)c(-c2ccc(Cl)c(Cl)c2)c1N [Aminopyrazole 3a]
EJM cell line
  IC50: 7100 to 9700 nM
NF-κB gene reporter; NIK-dependent MM cell line
  NF-κB gene reporter assay readout: efficacy
NF-κB gene reporter; two NIK-independent MM cell lines
  NF-κB gene reporter assay readout: no significant inhibition

## CC(O)(C#Cc1ccc2c(c1)N(c1nc(N)ncc1Cl)CC2)c1nccs1 (centres unmarked) [B022]
[5]
  death as a result of liver inflammation and injury: completely abrogated death
p100-to-p52 processing
  p100-to-p52 processing: inhibition
WT mice on ethanol diet
  alcoholic steatosis: alleviated alcoholic steatosis
Mouse stem cells
  adipogenesis: prevented adipogenesis
  cytoplasmic RelA phosphorylation levels: reduce
  non-canonical NF-κB signaling: inhibited
[6]
  in vivo pharmacokinetic properties: bad

## CC(C)(O)C#Cc1ccc2c(c1)N(c1ccnc(N)n1)CC2 [CW15337]
[7]
  IC50: 500 to 1000 nM
CLL cells
  CD40-mediated drug resistance: abrogated
Primary CLL cells; concentrations up to 0.25µM
  cell viability: without an effect
Primary CLL cells; [9]
  canonical NF-κB signaling: partial inhibition
  non-canonical NF-κB signaling: full blockade
Primary CLL cells
  concentrations resulting in specific non-canonical NF-κB inhibition: up to 0.25 µM

## Cc1cc([C@](C)(O)C#Cc2cc3c(cc2F)OCCn2cc(C(N)=O)nc2-3)no1 [Compound 10]
HEK293 cell line
  IC50: 123 to 189 nM

## Cc1nc2ccc(Cl)cn2c1-c1ccnc(N)n1 [Imidazopyridinyl pyrimidinamine 1]
HT-29 cell line
  IC50: 16000 nM

## O=C(NC1=CC2OC(c3cccc(NC(=O)c4ccccc4)c3)=NC2C=C1)c1ccccc1 (centres unmarked) [N-(3-(6-benzamido-3a,7a-dihydrobenzo[d]oxazol-2-yl)-phenyl)benzamide]
SW1990 cell line
  IC50: 42000 to 55800 nM

## COc1cc(C(N)=O)nc(-c2cccc(C#C[C@]3(O)CCN(C)C3=O)c2)c1 [NIK SMI1]
NZB/W F1 lupus mice
  germinal center B cell and plasma cell differentiation: inhibited
  mortality: significantly reduced
Primary B cells; Table 2, inhibitors applied in vivo, ref [83] [84]
  IC50: 109 to 269 nM
Primary B cells; primary B cells, ref [83]
  in vitro IC50 value: nanomolar range
WT mice; WT mice, dose-dependent
  B cell survival: reduction of marginal zone and follicular B cells
WT mice; WT mice
  serum IgA levels: reduced
WT mice; mice
  in vivo immune responses (germinal center development, IgG1 production, effector/memory T cell generation): […]
[8]; in vivo and in vitro, intrahepatic cholangiocarcinoma
  tumor cell proliferation: […]
[8]; mouse intrahepatic cholangiocarcinoma xenografts
  tolerance (weight loss, blood test results): good tolerance
RelA activity
  RelA activity: not affected
